Measurements from patent US20250195645A1, “COMBINATION OF MULTISPECIFIC MOLECULE AND IMMUNE CHECKPOINT INHIBITOR” (DAIICHI SANKYO COMPANY, LIMITED, priority 2022, published 2025).

Tests used:
[1] = tested on: human synovial sarcoma cell line SW982; assay: In vivo combinatorial effect of NYZ-1010 and doxorubicin, human T cell transfer model; settings: NSG mice
Description: The administration was carried out on Day 41 (NYZ-1010) or on Days 40 and 47 (doxorubicin). Tumor growth inhibition (%) and change from baseline (%) were calculated according to the expressions given below.

[2] = tested on: human lung adenocarcinoma cell line NCI-H522; assay: In vivo combinatorial effect of NYZ-1010 and pembrolizumab, human T cell transfer model; settings: 53 days after tumor inoculation; NSG mice; NYZ-1010 0.01 mg/kg Days 25, 32, 39; pembrolizumab 10 mg/kg Days 28, 32, 35, 39, 42
Description: Tumor growth inhibition (%) was calculated according to the following equation.

[3] = tested on: human esophageal cancer cell line OE-19; assay: In vivo combinatorial effect of NYZ-1010 and sacituzumab govitecan-hziy, human T cell transfer model; settings: NSG mice
Description: The administration was carried out on Day 7 (NYZ-1010) or on days 6 and 13 (sacituzumab govitecan-hziy). Tumor growth inhibition (%) and change from baseline (%) were calculated according to the expressions given below.

[4] = tested on: human lung adenocarcinoma cell line NCI-H522; assay: In vivo combinatorial effect of NYZ-1010 and durvalumab, human T cell transfer model; settings: NSG mice

Molecule: COc1cccc2c1C(=O)c1c(O)c3c(c(O)c1C2=O)C[C@@](O)(C(=O)CO)C[C@@H]3O[C@H]1C[C@H](N)[C@H](O)[C@H](C)O1 [doxorubicin]
- TGI (tumor growth inhibition) ([1]; 55 days after inoculation, NYZ-1010 0.01 mg/kg Day 41, doxorubicin 2.5 mg/kg Days 40 and 47): 25.6%
- Change from baseline (%) ([1]; group average, tumor volume on Day 55 vs Day 40 baseline): 214.1 (n = 5) %

Molecule: pembrolizumab: anti-PD-1 antibody
- TGI (tumor growth inhibition) [2]: 3.1%

Molecule: sacituzumab govitecan-hziy
- TGI (tumor growth inhibition) ([3]; 21 days after inoculation, NYZ-1010 0.01 mg/kg Day 7, sacituzumab govitecan-hziy 25 mg/kg days 6 and 13): 35.4%
- Change from baseline (%) ([3]; group average, tumor volume on Day 21 vs Day 6 baseline): 1027.8 (n = 5) %

Molecule: durvalumab: anti-PD-L1 antibody
- TGI (tumor growth inhibition) ([4]; 49 days after inoculation, NYZ-1010 0.02 mg/kg Days 25 and 32, durvalumab 10 mg/kg intraperitoneally Days 28, 32, 35, 39): −0.8%
- Change from baseline (%) ([4]; group average, tumor volume on Day 49 vs Day 24 baseline): 204.7 (n = 5) %
